Our source for the IC50 values is patent US10022376B2 (Pfizer Inc., priority 2014, dated 2018).

For the assay, the system named is rhIFNγ stimulated STAT-3 phosphorylation in the A549 human epithelial cell line. The assay can be described thus: A549 Cell Assay: Inhibition of pSTAT3. The assay is classed as cell-based. Conditions: Homo sapiens; A549 cells. The procedure:
A549 Cell Assay: Inhibition of pSTAT3
An assay measuring the efficacy of JAK inhibitors on the functional response of recombinant human interferon γ (rhIFNγ) stimulated STAT-3 phosphorylation in the A549 human epithelial cell line.
A549 cells (ATCC #CCL-185), were plated at 30,000 cells/well in 96 well flat bottomed tissue culture plates (BD#353072) in 200 μL of growth medium (DMEM, Pfizer media prep, with 10% Fetal Bovine Serum, Sigma #F4135, 2 mM L-Glutamine, Pfizer media prep, 100 U/mL penicillin, Pfizer media prep, and 200 μg/ml streptomycin, Pfizer media prep), and cultured at 37° C., 5% CO2 incubator for 18 hours. Growth medium was removed by vacuum aspiration (V&P Scientific #vp187 bp-60), and 90 μL of pre-warmed assay medium (DMEM with 0.2% BSA, Miltenyi #130-091-376) was added to each well and incubated for 15 minutes at 37° C. 10 μL of vehicle control or test compound (final concentration range of 0.3 nM to 10 μM with 0.1% DMSO) was added to the cells. Plates were incubated at 37° C. for 1 hour. After compound incubation, 10 μL of 220 ng/mL recombinant human IFNγ (R&D Systems #285-IF, final rhIFNγ concentration of 20 ng/mL) was added to the cells and plates were incubated for 30 minutes at 37° C. Wells containing A549 cells, medium with 0.1% DMSO and no rhIFNγ were used as background controls. After rhIFNγ stimulation, media was aspirated from each well and 35 μL/well of iced-cold MSD lysis buffer containing protease and phosphatase inhibitors from Phospho-STAT3 Tyr705 assay kit (Meso-Scale Discovery #K150DID) was added to each well. Plates were incubated at 4° C. with shaking for 30 minutes. Cell lysates were assayed following the MSD Phospho-STAT3 Tyr705 assay kit protocol to detect pSTAT3.
Data were collected and transformed into percent inhibition and calculated using the following formula: […]

Regarding `CCN(c1ccccc1CNc1nc(-c2cc(F)c(O)cc2CC(F)(F)F)cc2[nH]nc(C(=O)NC)c12)S(=O)(=O)CC` [Example 1, 4-({2-[Ethyl(ethylsulfonyl)amino]benzyl}amino)-6-[5-fluoro-4-hydroxy-2-(2,2,2-trifluoroethyl)phenyl]-N-methyl-1H-pyrazolo[4,3-c]pyridine-3-carboxamide], the IC50 (as a rule, the concentration that inhibits the measured activity by half) worked out at 67.4 nM.
Next, `CCc1cc(O)c(F)cc1-c1cc2[nH]nc(C(=O)NC)c2c(NCc2ccccc2N(CC)S(=O)(=O)CC)n1` [Example 2, 4-({2-[ethyl(ethylsulfonyl)amino]benzyl}amino)-6-(2-ethyl-5-fluoro-4-hydroxyphenyl)-N-methyl-1H-pyrazolo[4,3-c]pyridine-3-carboxamide]: 46.8 nM; `CCc1cc(O)c(F)cc1-c1cc2[nH]nc(C(=O)NC)c2c(NCc2ccccc2N(C)S(=O)(=O)CC)n1` [Example 3, 6-(2-ethyl-5-fluoro-4-hydroxyphenyl)-4-({2-[(ethylsulfonyl)(methyl)amino]benzyl}amino)-N-methyl-1H-pyrazolo[4,3-c]pyridine-3-carboxamide]: 16.2 nM; `CCc1cc(O)c(F)cc1-c1cc2[nH]nc(C(=O)NC)c2c(NCCc2ccc(O)cc2)n1` [Example 4, 6-(2-ethyl-5-fluoro-4-hydroxyphenyl)-4-{[2-(4-hydroxyphenyl)ethyl]amino}-N-methyl-1H-pyrazolo[4,3-c]pyridine-3-carboxamide]: 29.7 nM.
In turn, `CCc1cc(O)c(F)cc1-c1cc2[nH]nc(C(=O)NC)c2c(NCC(C)C)n1` [Example 5, 6-(2-ethyl-5-fluoro-4-hydroxyphenyl)-N-methyl-4-[(2-methylpropyl)amino]-1H-pyrazolo[4,3-c]pyridine-3-carboxamide] displayed an IC50 of 1.7 nM.
In the case of `CCc1cc(O)c(F)cc1-c1cc2[nH]nc(C(=O)NC)c2c(NCc2cc(Cl)ccc2N(C)S(C)(=O)=O)n1` [Example 6, 4-({5-chloro-2-[methyl(methylsulfonyl)amino]benzyl}amino)-6-(2-ethyl-5-fluoro-4-hydroxyphenyl)-N-methyl-1H-pyrazolo[4,3-c]pyridine-3-carboxamide], 23.4 nM corresponded to half-maximal inhibition (IC50).
Next, `CCc1cc(O)c(F)cc1-c1cc2[nH]nc(C(=O)NC)c2c(NCc2cc(F)ccc2N(C)S(C)(=O)=O)n1` [Example 7, 6-(2-ethyl-5-fluoro-4-hydroxyphenyl)-4-({5-fluoro-2-[methyl(methylsulfonyl)amino]benzyl}amino)-N-methyl-1H-pyrazolo[4,3-c]pyridine-3-carboxamide]: 5.7 nM; `CCc1cc(O)c(F)cc1-c1cc2[nH]nc(C(=O)NC)c2c(NCc2c(F)cccc2N(C)S(C)(=O)=O)n1` [Example 8, 6-(2-ethyl-5-fluoro-4-hydroxyphenyl)-4-({2-fluoro-6-[methyl(methylsulfonyl)amino]benzyl}amino)-N-methyl-1H-pyrazolo[4,3-c]pyridine-3-carboxamide]: 6.4 nM; `CNC(=O)c1n[nH]c2cc(-c3cc(F)c(O)cc3CC(F)(F)F)nc(NCc3cc(C)ccc3N(C)S(C)(=O)=O)c12` [Example 11, 6-[5-fluoro-4-hydroxy-2-(2,2,2-trifluoroethyl)phenyl]-N-methyl-4-({5-methyl-2-[methyl(methylsulfonyl)amino]benzyl}amino)-1H-pyrazolo[4,3-c]pyridine-3-carboxamide]: 72.4 nM.
As for `CNC(=O)c1n[nH]c2cc(-c3cc(F)c(O)cc3CC(F)(F)F)nc(NCc3cc(Cl)ccc3N(C)S(C)(=O)=O)c12` [Example 15, 4-({5-chloro-2-[methyl(methylsulfonyl)amino]benzyl}amino)-6-[5-fluoro-4-hydroxy-2-(2,2,2-trifluoroethyl)phenyl]-N-methyl-1H-pyrazolo[4,3-c]pyridine-3-carboxamide], the IC50 was 92.4 nM.
`CNC(=O)c1n[nH]c2cc(-c3cc(F)c(O)cc3CC(F)(F)F)nc(NCC(C)C)c12` [Example 16, 6-[5-fluoro-4-hydroxy-2-(2,2,2-trifluoroethyl)phenyl]-N-methyl-4-[(2-methylpropyl)amino]-1H-pyrazolo[4,3-c]pyridine-3-carboxamide] gave a half-maximal inhibitory concentration (IC50) of 65.1 nM.
Compound `CNC(=O)c1n[nH]c2cc(-c3cc(F)c(O)cc3CC(F)(F)F)nc(NCC3CCCC3)c12` [Example 17, 4-[(cyclopentylmethyl)amino]-6-[5-fluoro-4-hydroxy-2-(2,2,2-trifluoroethyl)phenyl]-N-methyl-1H-pyrazolo[4,3-c]pyridine-3-carboxamide] registered an IC50 of 174 nM.
Next, `CS(=O)(=O)N(CCO)c1ccccc1CNc1nc(-c2cc(F)c(O)cc2CC(F)(F)F)cc2[nH]nc(C(N)=O)c12` [Example 27, 6-[5-fluoro-4-hydroxy-2-(2,2,2-trifluoroethyl)phenyl]-4-({2-[(2-hydroxyethyl)(methylsulfonyl)amino]benzyl}amino)-1H-pyrazolo[4,3-c]pyridine-3-carboxamide]: 874 nM; `CCc1cc(O)c(F)cc1-c1cc2[nH]nc(C(=O)NC)c2c(NCc2ccc(O)cc2N(C)S(C)(=O)=O)n1` [Example 29, 6-(2-Ethyl-5-fluoro-4-hydroxyphenyl)-4-({4-hydroxy-2-[methyl (methylsulfonyl)amino]benzyl}amino)-N-methyl-1H-pyrazolo[4,3-c]pyridine-3-carboxamide]: 86.9 nM.
Take `CCc1cc(O)c(F)cc1-c1cc2[nH]nc(C(N)=O)c2c(NCc2ccc(O)cc2N(C)S(C)(=O)=O)n1` [Example 30, 6-(2-Ethyl-5-fluoro-4-hydroxyphenyl)-4-({4-hydroxy-2-[methyl(methylsulfonyl)amino]benzyl}amino)-1H-pyrazolo[4,3-c]pyridine-3-carboxamide]: the 50% inhibitory concentration (IC50) was 164 nM.
Next, `CNC(=O)c1n[nH]c2cc(-c3cc(F)c(O)cc3CC(F)(F)F)nc(NCc3ccccc3N(C)S(=O)(=O)c3cccc(O)c3)c12` [Example 32, 6-[5-Fluoro-4-hydroxy-2-(2,2,2-trifluoroethyl)phenyl]-4-[(2-{[(3-hydroxyphenyl)sulfonyl](methyl)amino}benzyl)amino]-N-methyl-1H-pyrazolo[4,3-c]pyridine-3-carboxamide]: 628 nM; `CCN(c1ccc(O)cc1CNc1nc(-c2cc(F)c(O)cc2CC(F)(F)F)cc2[nH]nc(C(=O)NC)c12)S(C)(=O)=O` [Example 34, 4-({2-[ethyl(methylsulfonyl)amino]-5-hydroxybenzyl}amino)-6-[5-fluoro-4-hydroxy-2-(2,2,2-trifluoroethyl)phenyl]-N-methyl-1H-pyrazolo[4,3-c]pyridine-3-carboxamide]: 301 nM; `CCN(c1ccc(O)cc1CNc1nc(-c2cc(F)c(O)cc2CC(F)(F)F)cc2[nH]nc(C(=O)NC)c12)S(=O)(=O)c1ccccc1` [Example 36, 4-({2-[ethyl(phenylsulfonyl)amino]-5-hydroxybenzyl}amino)-6-[5-fluoro-4-hydroxy-2-(2,2,2-trifluoroethyl)phenyl]-N-methyl-1H-pyrazolo[4,3-c]pyridine-3-carboxamide]: 433 nM.
As to `CNC(=O)c1n[nH]c2cc(-c3cc(F)c(O)cc3C3CC3)nc(NCc3ccccc3N(C)S(C)(=O)=O)c12` [Example 37, 6-(2-cyclopropyl-5-fluoro-4-hydroxyphenyl)-N-methyl-4-({2-[methyl(methylsulfonyl)amino]benzyl}amino)-1H-pyrazolo[4,3-c]pyridine-3-carboxamide], it took 47.4 nM to reach half-maximal inhibition (IC50).
Next, `CCc1cc(O)c(F)cc1-c1cc2[nH]nc(C(=O)NC)c2c(N[C@H](C)c2ccccc2N(C)S(C)(=O)=O)n1` [Example 38, 6-(2-Ethyl-5-fluoro-4-hydroxyphenyl)-N-methyl-4-{[(1R)-1-{2-[methyl(methylsulfonyl)amino]phenyl}ethyl]amino}-1H-pyrazolo[4,3-c]pyridine-3-carboxamide]: 30.8 nM.
In turn, `CCc1cc(O)c(F)cc1-c1cc2[nH]nc(C(=O)NC)c2c(N[C@@H](C)c2ccccc2N(C)S(C)(=O)=O)n1` [Example 39, 6-(2-Ethyl-5-fluoro-4-hydroxyphenyl)-N-methyl-4-{[(1S)-1-{2-[methyl(methylsulfonyl)amino]phenyl}ethyl]amino}-1H-pyrazolo[4,3-c]pyridine-3-carboxamide] displayed an IC50 of 60.9 nM.
Compound `CCc1cc(O)c(F)cc1-c1cc2[nH]nc(C(N)=O)c2c(NCc2ccccc2N(C)S(=O)(=O)c2ccccc2)n1` [Example 40, 6-(2-Ethyl-5-fluoro-4-hydroxyphenyl)-4-({2-[methyl(phenylsulfonyl)amino]benzyl}amino)-1H-pyrazolo[4,3-c]pyridine-3-carboxamide] showed an IC50 of 50 nM. This IC50 and that of the compound before are within 1.5-fold of each other.
Take `CN(c1ccc(O)cc1CNc1nc(-c2cc(F)c(O)cc2CC(F)(F)F)cc2[nH]nc(C(N)=O)c12)S(=O)(=O)c1ccccc1` [Example 42, 6-[5-fluoro-4-hydroxy-2-(2,2,2-trifluoroethyl)phenyl]-4-({5-hydroxy-2-[methyl(phenylsulfonyl)amino]benzyl}amino)-1H-pyrazolo[4,3-c]pyridine-3-carboxamide]: the 50% inhibitory concentration (IC50) was 645 nM.
